Experiments:
[1] = system: Beet Armyworm (Spodoptera exigua, LAPHEG); test: Bioassays on Beet Armyworm (BAW), 128-well diet tray assay; assay type: in vivo; details: Beet Armyworm, Table ABC Biological Results, read-out: BAW (rating)
Method: (§1) Certain molecules disclosed in this document were tested against BAW and CL using procedures described in the following examples. In the reporting of the results, the “BAW & CL Rating Table” was used (See Table Section).
Bioassays on BAW were conducted using a 128-well diet tray assay. One to five second instar BAW larvae were placed in each well (3 mL) of the diet tray that had been previously filled with 1 mL of artificial diet to which 50 μg/cm^2 of the test molecule (dissolved in 50 μL of 90:10 acetone-water mixture) had been applied (to each of eight wells) and then allowed to dry. Trays were covered with a clear self-adhesive cover, vented to allow gas exchange, and held at 25° C., 14:10 light-dark for five to seven days. Percent mortality was recorded for the larvae in each well; activity in the eight wells was then averaged. The results are indicated in the table entitled “Table ABC: Biological Results” (See Table Section).

[2] = system: Cabbage Looper (Trichoplusia ni, TRIPNI); test: Bioassays on Cabbage Looper (CL), 128-well diet tray assay; assay type: in vivo; details: Cabbage Looper, Table ABC Biological Results, read-out: CL (rating)
Method: as §1
Bioassays on CL were conducted using a 128-well diet tray assay. One to five second instar CL larvae were placed in each well (3 mL) of the diet tray that had been previously filled with 1 mL of artificial diet to which 50 μg/cm^2 of the test molecule (dissolved in 50 μL of 90:10 acetone-water mixture) had been applied (to each of eight wells) and then allowed to dry. Trays were covered with a clear self-adhesive cover, vented to allow gas exchange, and held at 25° C., 14:10 light-dark for five to seven days. Percent mortality was recorded for the larvae in each well; activity in the eight wells was then averaged. The results are indicated in the table entitled “Table ABC: Biological Results” (See Table Section).

Structure (SMILES) | pest or weed control at 50 µg/cm2 [1] [%] | pest or weed control at 50 µg/cm2 [2] [%]
CC(C(=O)Nc1c(F)ccc(NC(=O)c2cc(NC(=O)[C@H]3[C@H](c4ccc(F)c(Cl)c4)C3(Cl)Cl)ccc2Cl)c1F)S(=O)(=O)C(F)(F)F (stereo partly drawn) [F39, 2-Chloro-5-((1R,3R)-2,2-dichloro-3-(3-chloro-4-fluorophenyl)cyclopropane-1-carboxamido)-N-(2,4-difluoro-3-(2-((trif1uoromethyl)sulfonyl)propanamido)phenyl)benzamide] | 50 to 100 | 50 to 100
O=C(CSC(F)(F)F)Nc1c(F)ccc(NC(=O)c2cc(NC(=O)[C@H]3[C@H](c4cc(F)cc(C(F)(F)F)c4)C3(Cl)Cl)ccc2Cl)c1F [F49, 2-Chloro-5-((1R,3R)-2,2-dichloro-3-(3-fluoro-5-(trifluoromethyl)phenyl)cyclopropane-1-carboxamido)-N-(2,4-difluoro-3-(2-((trifluoromethyl)thio)acetamido)phenyl)benzamide] | 50 to 100 | 50 to 100
O=C(CCSC(F)(F)F)Nc1c(F)ccc(NC(=O)c2cc(NC(=O)[C@H]3[C@H](c4ccc(F)c(C(F)(F)F)c4)C3(Cl)Cl)ccc2Cl)c1F [F22, 2-Chloro-5-((1R,3R)-2,2-dichloro-3-(4-fluoro-3-(trifluoromethyl)phenyl)cyclopropane-1-carboxamido)-N-(2,4-difluoro-3-(3-((trifluoromethyl)thio)propanamido)phenyl)benzamide] | 50 to 100 | 50 to 100
O=C(CSCC(F)(F)F)Nc1c(F)ccc(NC(=O)c2cc(NC(=O)[C@H]3[C@H](c4ccc(Cl)c(Cl)c4)C3(Cl)Cl)ccc2Cl)c1F [F9, 2-Chloro-5-((1R,3R)-2,2-dichloro-3-(3,4-dichlorophenyl)cyclopropane-1-carboxamido)-N-(2,4-difluoro-3-(2-((2,2,2-trifluoroethyl)thio)acetamido)phenyl)benzamide] | 50 to 100 | 50 to 100
O=C(C[S+]([O-])C(F)(F)F)Nc1c(F)ccc(NC(=O)c2cc(NC(=O)[C@H]3[C@H](c4cc(Cl)c(Cl)c(Cl)c4)C3(Cl)Cl)ccc2Cl)c1F (stereo partly drawn) [F26, 2-Chloro-5-((1R,3R)-2,2-dichloro-3-(3,4,5-trichlorophenyl)cyclopropane-1-carboxamido)-N-(2,4-difluoro-3-(2-((trifluoromethyl)sulfinyl)acetamido)phenyl)benzamide] | 50 to 100 | 50 to 100
O=C(CSCC(F)(F)F)Nc1c(F)ccc(NC(=O)c2cc(NC(=O)[C@H]3[C@H](c4ccc(F)c(Cl)c4)C3(Cl)Cl)ccc2Cl)c1F [F12, 2-Chloro-5-((1R,3R)-2,2-dichloro-3-(3-chloro-4-fluorophenyl)cyclopropane-1-carboxamido)-N-(2,4-difluoro-3-(2-((2,2,2-trifluoroethyl)thio)acetamido)phenyl)benzamide] | 50 to 100 | 50 to 100
O=C(CSCC(F)(F)F)Nc1c(F)ccc(NC(=O)c2cc(NC(=O)[C@H]3[C@H](c4cc(Cl)c(Cl)c(Cl)c4)C3(Cl)Cl)ccc2Cl)c1F [F6, 2-Chloro-5-((1R,3R)-2,2-dichloro-3-(3,4,5-trichlorophenyl)cyclopropane-1-carboxamido)-N-(2,4-difluoro-3-(2-((2,2,2-trifluoroethyl)thio)acetamido)phenyl)benzamide] | 50 to 100 | 50 to 100
O=C(CS(=O)(=O)CC(F)(F)F)Nc1c(F)ccc(NC(=O)c2cc(NC(=O)[C@H]3[C@H](c4ccc(Cl)c(Cl)c4)C3(Cl)Cl)ccc2Cl)c1F [F42, 2-chloro-5-((1R,3R)-2,2-dichloro-3-(3,4-dichlorophenyl)cyclopropane-1-carboxamido)-N-(2,4-difluoro-3-(2-((2,2,2-trifluoroethyl)sulfonyl)acetamido)phenyl)benzamide] | 50 to 100 | 50 to 100
O=C(CSC(F)(F)F)Nc1c(F)ccc(NC(=O)c2cc(NC(=O)[C@H]3[C@H](c4ccc(Cl)c(Cl)c4)C3(Cl)Cl)ccc2Cl)c1F [F11, 2-Chloro-5-((1R,3R)-2,2-dichloro-3-(3,4-dichlorophenyl)cyclopropane-1-carboxamido)-N-(2,4-difluoro-3-(2-((trifluoromethyl)thio)acetamido)phenyl)benzamide] | 50 to 100 | 50 to 100
O=C(CSC(F)(F)F)Nc1c(F)ccc(NC(=O)c2cc(NC(=O)[C@H]3[C@H](c4cc(C(F)(F)F)cc(C(F)(F)F)c4)C3(Cl)Cl)ccc2Cl)c1F (relative stereo) [F48, trans-5-(3-(3,5-Bis(trifluoromethyl)phenyl)-2,2-dichlorocyclopropane-1-carboxamido)-2-chloro-N-(2,4-difluoro-3-(2-((trifluoromethyl)thio)acetamido)phenyl)benzamide] | 50 to 100 | 50 to 100
O=C(C[S+]([O-])C(F)(F)F)Nc1c(F)ccc(NC(=O)c2cc(NC(=O)[C@H]3[C@H](c4ccc(F)c(Cl)c4)C3(Cl)Cl)ccc2Cl)c1F (stereo partly drawn) [F28, 2-Chloro-5-((1R,3R)-2,2-dichloro-3-(3-chloro-4-fluorophenyl)cyclopropane-1-carboxamido)-N-(2,4-difluoro-3-(2-((trifluoromethyl)sulfinyl)acetamido)phenyl)benzamide] | 50 to 100 | 50 to 100
O=C(CSc1ccc(F)cc1)Nc1c(F)ccc(NC(=O)c2cc(NC(=O)[C@H]3[C@H](c4ccc(F)c(C(F)(F)F)c4)C3(Cl)Cl)ccc2Cl)c1F [F4, 2-Chloro-5-((1R,3R)-2,2-dichloro-3-(4-fluoro-3-(trifluoromethyl)phenyl)cyclopropane-1-carboxamido)-N-(2,4-difluoro-3-(2-((4-fluorophenyl)thio)acetamido)phenyl)benzamide] | 50 to 100 | 50 to 100
O=C(CSCCC(F)(F)F)Nc1c(F)ccc(NC(=O)c2cc(NC(=O)[C@H]3[C@H](c4ccc(F)c(C(F)(F)F)c4)C3(Cl)Cl)ccc2Cl)c1F [F5, 2-Chloro-5-((1R,3R)-2,2-dichloro-3-(4-fluoro-3-(trifluoromethyl)phenyl)cyclopropane-1-carboxamido)-N-(2,4-difluoro-3-(2-((3,3,3-trifluoropropyl)thio)acetamido)phenyl)benzamide] | 50 to 100 | 50 to 100
O=C(C[S+]([O-])C(F)(F)F)Nc1c(F)ccc(NC(=O)c2cc(NC(=O)[C@H]3[C@H](c4ccc(F)c(C(F)(F)F)c4)C3(Cl)Cl)ccc2Cl)c1F (stereo partly drawn) [F33, 2-chloro-5-((R,3R)-2,2-dichloro-3-(4-fluoro-3-(trifluoromethyl)phenyl)cyclopropane-1-carboxamido)-N-(2,4-difluoro-3-(2-((trifluoromethyl)sulfinyl)acetamido)phenyl)benzamide] | 50 to 100 | 50 to 100
O=C(CSc1ccncc1)Nc1c(F)ccc(NC(=O)c2cc(NC(=O)[C@H]3[C@H](c4ccc(F)c(C(F)(F)F)c4)C3(Cl)Cl)ccc2Cl)c1F [F2, 2-Chloro-5-((1R,3R)-2,2-dichloro-3-(4-fluoro-3-(trifluoromethyl)phenyl)cyclopropane-1-carboxamido)-N-(2,4-difluoro-3-(2-(pyridin-4-ylthio)acetamido)phenyl)benzamide] | 50 to 100 | 50 to 100

— patent publication US20210015098A1, “MOLECULES HAVING PESTICIDAL UTILITY, AND INTERMEDIATES, COMPOSITIONS, AND PROCESSES, RELATED THERETO” (DOW AGROSCIENCES LLC, priority 2018, published 2021)
